Assay results taken from ChEMBL document CHEMBL1143950, “Antifungal and cytotoxic activities of some N-substituted aniline derivatives bearing a hetaryl fragment” (Bioorg Med Chem, 2008).
Values after ≈ are worked out from the molar mass of the structure shown.

system: Candida albicans; experiment: Antifungal activity against Candida albicans ATCC 10231 by micro-broth dilution method; type: functional

MIC | Compound
> 250 µg/mL | N#CC(Nc1ccccc1)c1cccs1 (stereo not given)
> 250 µg/mL | O=[N+]([O-])c1cccc(NCc2cccnc2)c1
> 250 µg/mL | C=CCC(Nc1ccc(C)cc1)c1ccco1 (stereo not given)
100 µg/mL (≈ 504 µM) | Cc1ccc(NCc2ccncc2)cc1
250 µg/mL (≈ 1360 µM) | c1ccc(NCc2cccnc2)cc1
> 250 µg/mL | Cn1cccc1CNc1ccccc1
62.5 µg/mL (≈ 279 µM) | Clc1ccc(NCc2cccs2)cc1
> 250 µg/mL | Cc1ccc(NCc2ccco2)cc1

system: Candida tropicalis; experiment: Antifungal activity against Candida tropicalis C131 by micro-broth dilution method; type: functional

MIC | Compound
> 250 µg/mL | N#CC(Nc1ccccc1)c1cccs1 (stereo not given)
> 250 µg/mL | O=[N+]([O-])c1cccc(NCc2cccnc2)c1
> 250 µg/mL | C=CCC(Nc1ccc(C)cc1)c1ccco1 (stereo not given)
50 µg/mL (≈ 252 µM) | Cc1ccc(NCc2ccncc2)cc1
250 µg/mL (≈ 1360 µM) | c1ccc(NCc2cccnc2)cc1
> 250 µg/mL | Cn1cccc1CNc1ccccc1
62.5 µg/mL (≈ 279 µM) | Clc1ccc(NCc2cccs2)cc1
250 µg/mL (≈ 1340 µM) | Cc1ccc(NCc2ccco2)cc1

system: Saccharomyces cerevisiae; experiment: Antifungal activity against Saccharomyces cerevisiae ATCC 9763 by microbroth dilution method; type: functional

MIC | Compound
> 250 µg/mL | N#CC(Nc1ccccc1)c1cccs1 (stereo not given)
> 250 µg/mL | O=[N+]([O-])c1cccc(NCc2cccnc2)c1
> 250 µg/mL | C=CCC(Nc1ccc(C)cc1)c1ccco1 (stereo not given)
100 µg/mL (≈ 504 µM) | Cc1ccc(NCc2ccncc2)cc1
> 250 µg/mL | c1ccc(NCc2cccnc2)cc1
> 250 µg/mL | Cn1cccc1CNc1ccccc1
250 µg/mL (≈ 1120 µM) | Clc1ccc(NCc2cccs2)cc1
> 250 µg/mL | Cc1ccc(NCc2ccco2)cc1

system: Cryptococcus neoformans; experiment: Antifungal activity against Cryptococcus neoformans ATCC 32264 by microbroth dilution method; type: functional

MIC | Compound
> 250 µg/mL | N#CC(Nc1ccccc1)c1cccs1 (stereo not given)
> 250 µg/mL | O=[N+]([O-])c1cccc(NCc2cccnc2)c1
> 250 µg/mL | C=CCC(Nc1ccc(C)cc1)c1ccco1 (stereo not given)
50 µg/mL (≈ 252 µM) | Cc1ccc(NCc2ccncc2)cc1
> 250 µg/mL | c1ccc(NCc2cccnc2)cc1
> 250 µg/mL | Cn1cccc1CNc1ccccc1
62.5 µg/mL (≈ 279 µM) | Clc1ccc(NCc2cccs2)cc1
100 µg/mL (≈ 534 µM) | Cc1ccc(NCc2ccco2)cc1

system: Aspergillus fumigatus; experiment: Antifungal activity against Aspergillus fumigatus ATCC 26934 by micro-broth dilution method; type: functional

MIC | Compound
> 250 µg/mL | N#CC(Nc1ccccc1)c1cccs1 (stereo not given)
> 250 µg/mL | O=[N+]([O-])c1cccc(NCc2cccnc2)c1
> 250 µg/mL | C=CCC(Nc1ccc(C)cc1)c1ccco1 (stereo not given)
100 µg/mL (≈ 504 µM) | Cc1ccc(NCc2ccncc2)cc1
250 µg/mL (≈ 1360 µM) | c1ccc(NCc2cccnc2)cc1
> 250 µg/mL | Cn1cccc1CNc1ccccc1
125 µg/mL (≈ 559 µM) | Clc1ccc(NCc2cccs2)cc1
125 µg/mL (≈ 668 µM) | Cc1ccc(NCc2ccco2)cc1

system: Aspergillus flavus; experiment: Antifungal activity against Aspergillus flavus ATCC 9170 by micro-broth dilution method; type: functional

MIC | Compound
> 250 µg/mL | N#CC(Nc1ccccc1)c1cccs1 (stereo not given)
> 250 µg/mL | O=[N+]([O-])c1cccc(NCc2cccnc2)c1
> 250 µg/mL | C=CCC(Nc1ccc(C)cc1)c1ccco1 (stereo not given)
200 µg/mL (≈ 1010 µM) | Cc1ccc(NCc2ccncc2)cc1
250 µg/mL (≈ 1360 µM) | c1ccc(NCc2cccnc2)cc1
> 250 µg/mL | Cn1cccc1CNc1ccccc1
250 µg/mL (≈ 1120 µM) | Clc1ccc(NCc2cccs2)cc1
250 µg/mL (≈ 1340 µM) | Cc1ccc(NCc2ccco2)cc1

system: Trichophyton rubrum; experiment: Antifungal activity against Trichophyton rubrum C113 by microbroth dilution method; type: functional

MIC | Compound
250 µg/mL (≈ 1170 µM) | N#CC(Nc1ccccc1)c1cccs1 (stereo not given)
25 µg/mL (≈ 109 µM) | O=[N+]([O-])c1cccc(NCc2cccnc2)c1
> 250 µg/mL | C=CCC(Nc1ccc(C)cc1)c1ccco1 (stereo not given)
25 µg/mL (≈ 126 µM) | Cc1ccc(NCc2ccncc2)cc1
125 µg/mL (≈ 678 µM) | c1ccc(NCc2cccnc2)cc1
250 µg/mL (≈ 1340 µM) | Cn1cccc1CNc1ccccc1
62.5 µg/mL (≈ 279 µM) | Clc1ccc(NCc2cccs2)cc1
25 µg/mL (≈ 134 µM) | Cc1ccc(NCc2ccco2)cc1

system: Aspergillus niger; experiment: Antifungal activity against Aspergillus niger ATCC 9029 by micro-broth dilution method; type: functional

MIC | Compound
> 250 µg/mL | N#CC(Nc1ccccc1)c1cccs1 (stereo not given)
> 250 µg/mL | O=[N+]([O-])c1cccc(NCc2cccnc2)c1
> 250 µg/mL | C=CCC(Nc1ccc(C)cc1)c1ccco1 (stereo not given)
100 µg/mL (≈ 504 µM) | Cc1ccc(NCc2ccncc2)cc1
250 µg/mL (≈ 1360 µM) | c1ccc(NCc2cccnc2)cc1
> 250 µg/mL | Cn1cccc1CNc1ccccc1
250 µg/mL (≈ 1120 µM) | Clc1ccc(NCc2cccs2)cc1
250 µg/mL (≈ 1340 µM) | Cc1ccc(NCc2ccco2)cc1

system: Nannizzia gypsea; experiment: Antifungal activity against Microsporum gypseum C115 by microbroth dilution method; type: functional

MIC | Compound
> 250 µg/mL | N#CC(Nc1ccccc1)c1cccs1 (stereo not given)
25 µg/mL (≈ 109 µM) | O=[N+]([O-])c1cccc(NCc2cccnc2)c1
> 250 µg/mL | C=CCC(Nc1ccc(C)cc1)c1ccco1 (stereo not given)
50 µg/mL (≈ 252 µM) | Cc1ccc(NCc2ccncc2)cc1
125 µg/mL (≈ 678 µM) | c1ccc(NCc2cccnc2)cc1
> 250 µg/mL | Cn1cccc1CNc1ccccc1
62.5 µg/mL (≈ 279 µM) | Clc1ccc(NCc2cccs2)cc1
100 µg/mL (≈ 534 µM) | Cc1ccc(NCc2ccco2)cc1

system: Trichophyton mentagrophytes; experiment: Antifungal activity against Trichophyton mentagrophytes ATCC 9972 by micro-broth dilution method; type: functional

MIC | Compound
250 µg/mL (≈ 1170 µM) | N#CC(Nc1ccccc1)c1cccs1 (stereo not given)
25 µg/mL (≈ 109 µM) | O=[N+]([O-])c1cccc(NCc2cccnc2)c1
> 250 µg/mL | C=CCC(Nc1ccc(C)cc1)c1ccco1 (stereo not given)
25 µg/mL (≈ 126 µM) | Cc1ccc(NCc2ccncc2)cc1
125 µg/mL (≈ 678 µM) | c1ccc(NCc2cccnc2)cc1
250 µg/mL (≈ 1340 µM) | Cn1cccc1CNc1ccccc1
62.5 µg/mL (≈ 279 µM) | Clc1ccc(NCc2cccs2)cc1
50 µg/mL (≈ 267 µM) | Cc1ccc(NCc2ccco2)cc1
